Assay results published in article PMC4492822 (EMBO Molecular Medicine, 2015).

Legend:
[1] = system: H1299-DR-GFP cells; assay: Homologous recombination reporter assay; format: cell-based
Experimental: NHEJ was assessed by the functional reporter system H1299-EJ, provided by E Dikomey. […] When these sites are incised by I-SceI, the artificial start codon is removed creating a DSB. Repair of this DSB by NHEJ restores GFP expression, so that cells capable for NHEJ can be identified by their GFP fluorescence intensity (Kriegs et al, [2010]). H1299.EJ cells were plated in a 6-well plate (1 × 10^5 cell/well) and treated with 4–6 μM RK-33. The following day, cells were transfected (in duplicates) with 1–2 μg of pSceI or pEGFP construct using TransIT-LT1 (Mirus, Madison, WI, USA) in serum-free media (Opti-MEM, Invitrogen, Carlsbad, CA, USA). Media was replaced after 4–6 h with complete media. Subsequently, cells were harvested by trypsinization, washed in PBS, and resuspended in 0.5 ml PBS. NHEJ activity was measured on a FACScan I instrument and analyzed on FlowJo software. Recombination frequency was calculated as ((% pSceI − % negative control) / % pEGFP). H1299-DR-GFP cells, provided by RG Bristow, were used to measure homologous recombination similarly as described above (Chan et al, [2008]).

[2] = system: Twist1/Kras^G12D lung tumors; assay: Twist1/KrasG12D lung tumor model, fractionated radiation (10 fractions of 3 Gy); format: in vivo, mouse; settings: 3 weeks following treatment
Experimental: Inducible Twist1/Kras^G12D transgenic mice in the FVB/N inbred background were of the genotype: CCSP-rtTA/tetO-KrasG12D/Twist1-tetO-luc (Tran et al, [2012]). All the mice were weaned 3–4 weeks of age and then placed on dox at 4–6 weeks of age. Mice were treated with similar levels of tumor burden per micro-CT and were typically 20–30 weeks old. Mice were treated as in Fig6C and H. Each group consisted of mice, of which multiple index tumors were followed in time by micro-CT and quantified by a board-certified radiation oncologist (JZ) in a blinded fashion. Bi-dimensional measurements were made on tumors using serial examinations and tumor volumes calculated using the equation Volume = π/6 × 1.65 (length × width) × 3/2. Volumes were normalized to the starting volume, t = 0 before treatment. For 15-Gy SABR experiments, the breakdown of animal usage is (1) RT = 3 female mice, (2) RK-33 = 3 females and 1 male mice, (3) carboplatin = 3 male mice, (4) RT + carboplatin = 3 female mice, and (5) RT + RK-33 = 5 female mice. […]
The mice underwent micro-CT imaging by use of the Small Animal Radiation Research Platform (SARRP) irradiator described earlier (Wong et al, [2008]). […] Tumor volumes were quantified from the CT dataset with Pinnacle3 software v.8.1y (Philips Inc, Madison, WI) as described previously (Tran et al, [2011]; Zeng et al, [2013]). […]

[3] = system: H1299; assay: Annexin V / PI flow cytometry, 72 h; format: cell-based
Experimental: (§1) Histograms depicting early apoptosis (Annexin V positive) and late apoptosis (PI positive) in cells treated with the indicated amounts of RK-33. Cells were either treated with DMSO (controls) or IC50 and IC75 amounts of RK-33. After 72 hours incubation, cells were harvested and stained for Annexin V and PI and analyzed by flow cytometry.

[4] = system: H460; assay: Annexin V / PI flow cytometry, 72 h; format: cell-based
Experimental: as §1

[5] = system: H196; assay: Annexin V / PI flow cytometry, 72 h; format: cell-based
Experimental: as §1

[6] = system: H23; assay: Annexin V / PI flow cytometry, 72 h; format: cell-based
Experimental: as §1

[7] = system: H358; assay: Annexin V / PI flow cytometry, 72 h; format: cell-based
Experimental: as §1

[8] = 7.5 uM, lower line, first value
[9] = 7.5 uM, lower line, second value

Substance: diimidazo[4,5-d:4′,5′-f]-[1,3]diazepine [RK-33]
- HR activity [1]: no changes in HR activity
- decrease in tumor growth, RK-33 and radiation versus radiation [2]: not significant
- cells in gate of Annexin V/PI plot [3, 8]: 40.4
- cells in gate of Annexin V/PI plot [3, 9]: 12.6
- cells in gate of Annexin V/PI plot ([3]; 7.5 uM, upper value of panel): 33.7
- cells in gate of Annexin V/PI plot ([3]; 13 uM, lower line, first value): 36
- cells in gate of Annexin V/PI plot ([3]; 13 uM, lower line, second value): 7.3
- cells in gate of Annexin V/PI plot ([3]; 13 uM, upper value of panel): 41.5
- cells in gate of Annexin V/PI plot ([4]; 6.5 uM, lower value of panel): 62
- cells in gate of Annexin V/PI plot ([4]; 6.5 uM, upper value of panel): 25.6
- cells in gate of Annexin V/PI plot ([4]; 9 uM, lower value of panel): 50.1
- cells in gate of Annexin V/PI plot ([4]; 9 uM, upper value of panel): 34.7
- cells in gate of Annexin V/PI plot ([5]; 3 uM, lower value of panel): 43.3
- cells in gate of Annexin V/PI plot ([5]; 3 uM, upper value of panel): 52.7
- cells in gate of Annexin V/PI plot ([5]; 4.5 uM, lower value of panel): 36.6
- cells in gate of Annexin V/PI plot ([5]; 4.5 uM, upper value of panel): 60.9
- cells in gate of Annexin V/PI plot ([6]; 5 uM, lower line, first value): 30.3
- cells in gate of Annexin V/PI plot ([6]; 5 uM, lower line, second value): 28.2
- cells in gate of Annexin V/PI plot ([6]; 5 uM, upper value of panel): 39
- cells in gate of Annexin V/PI plot [6, 8]: 17.1
- cells in gate of Annexin V/PI plot [6, 9]: 18.8
- cells in gate of Annexin V/PI plot ([6]; 7.5 uM, upper value of panel): 60.4
- cells in gate of Annexin V/PI plot ([7]; 11 uM, lower line, first value): 26.6
- cells in gate of Annexin V/PI plot ([7]; 11 uM, lower line, second value): 31.9
- cells in gate of Annexin V/PI plot ([7]; 11 uM, upper value of panel): 34.9
- cells in gate of Annexin V/PI plot ([7]; 16 uM, lower line, first value): 26.8
- cells in gate of Annexin V/PI plot ([7]; 16 uM, lower line, second value): 26.5
- cells in gate of Annexin V/PI plot ([7]; 16 uM, upper value of panel): 40.8
